Experimental data as given in patent US10137239B2, “Systems and methods for monitoring time based photo active agent delivery or photo active marker presence” (Avedro, Inc., priority 2011, dated 2018).

Experiment: Effect of a quenching agent on Riboflavin fluorescence in the eye after Riboflavin pre-soak
Design: species or system porcine
Details: 1% ascorbic acid drops for 5, 10, 15 min after 30 min pre-soak with 0.1% Riboflavin-5-phosphate in saline; control distilled water; FIGS. 14, 15A, 15B
Description: In an experimental setup, the Galilei Dual Scheimpflug Analyzer from Ziemer was used to perform experiments to detect the presence of Riboflavin in porcine corneas through a filter in front of one of the detectors in the Scheimpflug analyzer. The Dual Scheimpflug Analyzer has two detectors that rotate 180° taking several spokes (ranging from 16 to 60 spokes) of the corneal tissue illuminated by 470 nm light through a slit lamp aperture.
A Straw colored filter (Cinegel, Rosco) is used to filter the exciting light (i.e., the 470 nm light), while allowing the fluorescence (i.e., the 525 nm light) to reach the detector. This is illustrated by the graph shown in FIG. 11B, which illustrates the transmission spectrum for the Straw colored filter utilized.
However, as discussed above, several different substances can be utilized as quenching agents to inhibit the photo-activation of a cross-linking agent, or to degrade the cross-linking agent such that it is no longer photo-active. […] After the pre-soak, the eye was placed in front of the Scheimpflug analyzer and another image (or series of images) was captured to determine the distribution of Riboflavin based on the detected pattern of fluorescence within the cornea. […]
To analyze the effects described above, images from the Scheimpflug image capture system were exported and analyzed. […]

With `O=C1O[C@H]([C@@H](O)CO)C(O)=C1O` [ascorbic acid] as the compound, how does the “maximum fluorescence intensity observed with the Scheimpflug imager” value read?
Its value is “considerably decreases the maximum fluorescence intensity”.
